# pIC50: −log10 of the molar value. Read-outs that look alike come from different tables or passages of the source.
# What was measured:
# [1] = test system: PBMCs; experiment: Cytotoxicity (TC50) in PBMCs; format: cell-based
# [2] = test system: CEM T-lymphocytic cells or MAGI-CCR5 cells; experiment: Cytotoxicity of two-drug combinations; conditions: 10 μM highest test concentration
# Protocol: The anti-HIV-1 activity of CMX157 is evaluated in two-drug combination studies with twenty-four different FDA-approved anti-HIV inhibitors. Each two-drug combination is tested three times in CEM T-lymphocytic cells or MAGI-CCR5 cells acutely infected with the laboratory-adapted strain HIV-1IIIB or HIV-1Ba-L, respectively. Viral growth/inhibition is evaluated by measuring virus-induced cytopathic effects (CPE) in CEM cells or by β-galactosidase reporter gene induction in MAGI-CCR5 cells at the experimental endpoint. The cytotoxicity of each two-drug combination is also evaluated in parallel with the antiviral evaluations. The concentrations of CMX157 used in these evaluations are selected in order to test a broad range of concentrations and to provide as complete a dose response curve as possible under the limitations of eight total concentrations. […] The “positive antagonism control” of d4T (stavudine) in combination with RBV was tested in parallel with each of the assays that were performed. Analysis of drug interactions for each of the two-drug combinations is performed using the Prichard and Shipman MacSynergy II three-dimensional model for statistical evaluation of combination assays.
# [3] = test system: HIV-1 Subtype Isolates; experiment: Activity against HIV-1 subtype isolates in PBMCs, RT endpoint; conditions: for pIC50: Human immunodeficiency virus 1, PBMC
compound,measurement,setting,value
"CCCCCCCCCCCCCCCCOCCCOP(=O)(O)CO[C@H](C)Cn1cnc2c(N)ncnc21 [CMX157, Hexadecyloxypropyl-9-R-[2-(Phosphonomethoxy)Propyl]-Adenine]",CC50,[1]; HIV-2 isolate CBL-20,> 1000 nM
same,CC50,[1]; HIV-2 isolate CDC310342,> 1000 nM
same,CC50,"[1]; isolate 96USHIPS7, subtype B, read-out: TC 50 (the source's name)",> 1000 nM
same,CC50,"[1]; isolate BCF01, subtype O, read-out: TC 50 (the source's name)",> 1000 nM
same,CC50,"[1]; isolate BCF02, subtype O, read-out: TC 50 (the source's name)",> 1000 nM
same,CC50,"[1]; isolate BCF03, subtype O, read-out: TC 50 (the source's name)",> 1000 nM
same,CC50,"[1]; isolate BR/92/014, subtype B, read-out: TC 50 (the source's name)",> 1000 nM
same,CC50,"[1]; isolate BR/92/025, subtype C, read-out: TC 50 (the source's name)",> 1000 nM
same,CC50,"[1]; isolate BR/93/019, subtype F, read-out: TC 50 (the source's name)",> 1000 nM
same,CC50,"[1]; isolate BR/93/020, subtype F, read-out: TC 50 (the source's name)",> 1000 nM
same,CC50,"[1]; isolate BR/93/029, subtype F, read-out: TC 50 (the source's name)",> 1000 nM
same,CC50,"[1]; isolate CMU06, subtype E, read-out: TC 50 (the source's name)",> 1000 nM
same,CC50,"[1]; isolate CMU08, subtype E, read-out: TC 50 (the source's name)",> 1000 nM
same,CC50,"[1]; isolate G3, subtype G, read-out: TC 50 (the source's name)",> 1000 nM
same,CC50,"[1]; isolate IN/93/101, subtype C, read-out: TC 50 (the source's name)",> 1000 nM
same,CC50,"[1]; isolate JR-CSF, subtype B, read-out: TC 50 (the source's name)",> 1000 nM
same,CC50,"[1]; isolate JV1083, subtype G, read-out: TC 50 (the source's name)",> 1000 nM
same,CC50,"[1]; isolate MW/93/959, subtype C, read-out: TC 50 (the source's name)",> 1000 nM
same,CC50,"[1]; isolate RU132, subtype G, read-out: TC 50 (the source's name)",> 1000 nM
same,CC50,"[1]; isolate RW/92/009, subtype A, read-out: TC 50 (the source's name)",> 1000 nM
same,CC50,"[1]; isolate TH/92/026, subtype B, read-out: TC 50 (the source's name)",> 1000 nM
same,CC50,"[1]; isolate TH/93/073, subtype E, read-out: TC 50 (the source's name)",> 1000 nM
same,CC50,"[1]; isolate UG/92/001, subtype D, read-out: TC 50 (the source's name)",> 1000 nM
same,CC50,"[1]; isolate UG/92/024, subtype D, read-out: TC 50 (the source's name)",> 1000 nM
same,CC50,"[1]; isolate UG/92/029, subtype A, read-out: TC 50 (the source's name)",> 1000 nM
same,CC50,"[1]; isolate UG/92/037, subtype A, read-out: TC 50 (the source's name)",> 1000 nM
same,CC50,"[1]; isolate UG/92/046, subtype D, read-out: TC 50 (the source's name)",> 1000 nM
same,synergistic cytotoxicity,[2],no evidence of synergistic cytotoxicity
same,pIC50,"[3]; read-out: IC50s against all major HIV subtypes, subtypes A-G, O and HIV-2, Tables 2 and 3",8.14 to 9.70
same,pIC50,"[3]; read-out: RT Endpoint IC50, isolate 96USHIPS7, subtype B",8.32
same,pIC50,"[3]; read-out: RT Endpoint IC50, isolate ADA, subtype B",8.97
same,pIC50,"[3]; read-out: RT Endpoint IC50, isolate BCF01, subtype O",8.14
same,pIC50,"[3]; read-out: RT Endpoint IC50, isolate BCF02, subtype O",8.61
same,pIC50,"[3]; read-out: RT Endpoint IC50, isolate BCF03, subtype O",8.28
same,pIC50,"[3]; read-out: RT Endpoint IC50, isolate BR/92/014, subtype B",8.80
same,pIC50,"[3]; read-out: RT Endpoint IC50, isolate BR/92/025, subtype C",8.46
same,pIC50,"[3]; read-out: RT Endpoint IC50, isolate BR/93/019, subtype F",8.19
same,pIC50,"[3]; read-out: RT Endpoint IC50, isolate BR/93/020, subtype F",9.14
same,pIC50,"[3]; read-out: RT Endpoint IC50, isolate BR/93/029, subtype F",8.99
same,pIC50,"[3]; read-out: RT Endpoint IC50, isolate CMU06, subtype E",8.99
same,pIC50,"[3]; read-out: RT Endpoint IC50, isolate CMU08, subtype E",8.55
same,pIC50,"[3]; read-out: RT Endpoint IC50, isolate G3, subtype G",8.57
same,pIC50,"[3]; read-out: RT Endpoint IC50, isolate IN/93/101, subtype C",9.28
same,pIC50,"[3]; read-out: RT Endpoint IC50, isolate JR-CSF, subtype B",9.17
same,pIC50,"[3]; read-out: RT Endpoint IC50, isolate JV1083, subtype G",8.63
same,pIC50,"[3]; read-out: RT Endpoint IC50, isolate MW/93/959, subtype C",8.35
same,pIC50,"[3]; read-out: RT Endpoint IC50, isolate RU132, subtype G",8.79
same,pIC50,"[3]; read-out: RT Endpoint IC50, isolate RW/92/009, subtype A",8.76
same,pIC50,"[3]; read-out: RT Endpoint IC50, isolate TH/92/026, subtype B",9.36
same,pIC50,"[3]; read-out: RT Endpoint IC50, isolate TH/93/073, subtype E",8.53
same,pIC50,"[3]; read-out: RT Endpoint IC50, isolate UG/92/001, subtype D",8.29
same,pIC50,"[3]; read-out: RT Endpoint IC50, isolate UG/92/024, subtype D",9.52
same,pIC50,"[3]; read-out: RT Endpoint IC50, isolate UG/92/029, subtype A",8.23
same,pIC50,"[3]; read-out: RT Endpoint IC50, isolate UG/92/037, subtype A",8.64
same,pIC50,"[3]; read-out: RT Endpoint IC50, isolate UG/92/046, subtype D",9.02
same,TI (TC50/IC50),"[3]; isolate 96USHIPS7, subtype B",>208
same,TI (TC50/IC50),"[3]; isolate ADA, subtype B",>925
same,TI (TC50/IC50),"[3]; isolate BCF01, subtype O",>139
same,TI (TC50/IC50),"[3]; isolate BCF02, subtype O",>405
same,TI (TC50/IC50),"[3]; isolate BCF03, subtype O",>189
same,TI (TC50/IC50),"[3]; isolate BR/92/014, subtype B",>633
same,TI (TC50/IC50),"[3]; isolate BR/92/025, subtype C",>291
same,TI (TC50/IC50),"[3]; isolate BR/93/019, subtype F",>156
same,TI (TC50/IC50),"[3]; isolate BR/93/020, subtype F",">1,362"
same,TI (TC50/IC50),"[3]; isolate BR/93/029, subtype F",>972
same,TI (TC50/IC50),"[3]; isolate CMU06, subtype E",>970
same,TI (TC50/IC50),"[3]; isolate CMU08, subtype E",>356
same,TI (TC50/IC50),"[3]; isolate G3, subtype G",>373
same,TI (TC50/IC50),"[3]; isolate IN/93/101, subtype C",">1,892"
same,TI (TC50/IC50),"[3]; isolate JR-CSF, subtype B",">1,480"
same,TI (TC50/IC50),"[3]; isolate JV1083, subtype G",>431
same,TI (TC50/IC50),"[3]; isolate MW/93/959, subtype C",>222
same,TI (TC50/IC50),"[3]; isolate RU132, subtype G",>615
same,TI (TC50/IC50),"[3]; isolate RW/92/009, subtype A",>571
same,TI (TC50/IC50),"[3]; isolate TH/92/026, subtype B",">2,278"
same,TI (TC50/IC50),"[3]; isolate TH/93/073, subtype E",>339
same,TI (TC50/IC50),"[3]; isolate UG/92/001, subtype D",>194
same,TI (TC50/IC50),"[3]; isolate UG/92/024, subtype D",">3,346"
same,TI (TC50/IC50),"[3]; isolate UG/92/029, subtype A",>171
same,TI (TC50/IC50),"[3]; isolate UG/92/037, subtype A",>435
same,TI (TC50/IC50),"[3]; isolate UG/92/046, subtype D",">1,039"
